Measurements reported in US7294648B2, “Anthranyl derivatives having an anticholecystokinin activity (anti-cck-1), a process for their preparation, and pharmaceutical use thereof” (Rottapharm S.p.A., priority 2002, dated 2007).

How the values were obtained:
CCK-1 receptors = target: T1, CCK-1 receptors (Rattus norvegicus, UniProt P30551); test: Inhibition of binding of [125I]-BH-CCK-8 to isolated rat pancreatic acini; conditions: for IC50: 30 minutes at 37° C., at least 3 experiments, read-out: IC50, inhibition of binding of [125I]-BH-CCK-8 to isolated rat pancreatic acini
T1 construct: The pancreatic acini obtained from the outbred male rat pancreas of the Sprague Dawley strain; from tissue; host or cells: isolated pancreatic acini of male Sprague Dawley rats
T1 sequence (P30551 1-444): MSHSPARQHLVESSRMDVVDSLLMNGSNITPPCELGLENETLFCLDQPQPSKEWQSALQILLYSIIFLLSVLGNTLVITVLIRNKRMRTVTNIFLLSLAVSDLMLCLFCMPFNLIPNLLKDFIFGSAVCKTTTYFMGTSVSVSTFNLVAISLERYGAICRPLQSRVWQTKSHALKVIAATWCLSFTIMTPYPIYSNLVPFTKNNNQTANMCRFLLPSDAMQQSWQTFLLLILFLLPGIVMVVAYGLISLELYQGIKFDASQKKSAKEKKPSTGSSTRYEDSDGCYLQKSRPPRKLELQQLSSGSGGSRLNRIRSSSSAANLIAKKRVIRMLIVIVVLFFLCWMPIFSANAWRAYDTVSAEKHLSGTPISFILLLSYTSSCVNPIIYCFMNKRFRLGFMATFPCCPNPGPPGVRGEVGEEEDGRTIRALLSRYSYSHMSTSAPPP
Description: The pancreatic acini obtained from the outbred male rat pancreas of the Sprague Dawley strain, were incubated in the presence of radioactive tracers and the compound studied for 30 minutes at 37° C. After having discarded the supernatant, the radioactivity associated with the pellet was determined with a liquid scintillator. The specific binding was determined as the difference between the binding in the absence and in the presence of CCK-8, 1.10^−6M. […] The values of IC50 reported were calculated with the […] of a set of at least 3 experiences for each compound studied.

CCK-2 receptor [1] = target: T2, CCK-2 receptor (Cavia porcellus, UniProt H0VZC5); test: Inhibition of the binding of [125I]-BH-CCK-8 to the cortical membrane of guinea pigs; set-up: species or system guinea pig; conditions: 120 minutes at 25° C.; 25 pM marked binder; at least 3 tests
T2 construct: The incubation of the cerebral membranes together with the radioactive tracers and the compounds under study; from tissue; host or cells: cerebral cortex membranes of male albino Hartley guinea pigs
T2 sequence (H0VZC5 1-426): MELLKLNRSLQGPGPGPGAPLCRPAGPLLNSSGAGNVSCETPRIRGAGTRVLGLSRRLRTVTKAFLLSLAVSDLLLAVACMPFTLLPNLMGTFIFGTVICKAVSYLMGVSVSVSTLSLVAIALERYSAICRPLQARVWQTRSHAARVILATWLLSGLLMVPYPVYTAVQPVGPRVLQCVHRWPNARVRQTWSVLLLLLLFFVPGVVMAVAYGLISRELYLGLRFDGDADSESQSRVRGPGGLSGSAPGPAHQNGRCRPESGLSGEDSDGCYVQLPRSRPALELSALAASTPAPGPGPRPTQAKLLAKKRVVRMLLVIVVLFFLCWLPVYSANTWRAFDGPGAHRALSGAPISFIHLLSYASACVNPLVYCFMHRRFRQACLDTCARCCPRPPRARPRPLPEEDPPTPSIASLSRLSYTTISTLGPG
Description: (§1) For this purpose binding tests were performed on cerebral cortex of male albino guinea pigs outbred from the Hartley strain, using as marked binder the [^125I]-BH-CCK-8 sulphate, according to the procedure described by Makovec F. [J. Med. Chem. 35, (1992),28].
(§2) The incubation of the cerebral membranes together with the radioactive tracers and the compounds under study was effected on multi-well plates for 120 minutes at 25° C. Each well contained membrane corresponding to about 0.5 mg of proteins/ml and 25 pM of marked binder in a total volume of 250 micro litres. The specific binding was determined as the difference between the binding in the absence and in the presence of CCK-8, 1.10^−6M. At the end of the incubation a rapid filtration of the plate was performed under vacuum and the radioactivity of the individual filters extracted from the wells was measured with a γ-emission counter. The results obtained are shown in Table 3, in which the tested compounds are indicated, the IC50 calculated with the regression method on a set of at least 3 tests for each compound studied and an index derived from the ratio of the affinity obtained for the two types of receptor CCK-2 and CCK-1.

CCK-2 receptor [2] = test: as above; set-up: species or system guinea pig; conditions: IC50 CCK-2 (guinea pig cortex) / IC50 CCK-1 (rat pancreatic acini, Table 2)
Description: as §1, §2

| IC50 (CCK-1 receptors) [nM] | SMILES | further results |
| --- | --- | --- |
| 120 | O=C(Nc1ccccc1C(=O)NC(CCc1ccc([N+](=O)[O-])cc1)C(=O)O)c1cc2ccccc2[nH]1 (stereo not shown) [Compound 29] | – |
| 1960 | CC(NC(=O)c1ccccc1NC(=O)c1cc2ccccc2[nH]1)C(=O)O (stereo not shown) [Compound 34] | – |
| 240 | COc1cccc(CC(NC(=O)c2ccccc2NC(=O)c2cc3ccccc3[nH]2)C(=O)O)c1 (stereo not shown) [Compound 16] | – |
| 110 | O=C(Nc1ccccc1C(=O)N[C@H](Cc1ccccc1)C(=O)O)c1cc2ccccc2[nH]1 [Compound 2, 2 (R)-{2-[(1H-indol-2-carbonyl)amino]-benzoylamino}-3-phenyl-propionic acid] | – |
| 410 | O=C(Nc1ccc(Cl)cc1C(=O)NC(Cc1ccccc1)C(=O)O)c1cc2ccccc2[nH]1 (stereo not shown) [Compound 4] | – |
| 160 | Cc1ccccc1CC(NC(=O)c1ccccc1NC(=O)c1cc2ccccc2[nH]1)C(=O)O (stereo not shown) [Compound 11] | – |
| 1410 | O=C(Nc1ccccc1C(=O)NC(Cc1c(Cl)cccc1Cl)C(=O)O)c1cc2ccccc2[nH]1 (stereo not shown) [Compound 15] | – |
| 10 | COc1cccc(CCC(NC(=O)c2ccccc2NC(=O)c2cc3ccccc3[nH]2)C(=O)O)c1 (stereo not shown) [Compound 31] | IC50 (CCK-2 receptor [1]): 3400 nM; index derived from the ratio of the affinity obtained for the two types of receptor CCK-2 and CCK-1 (CCK-2 receptor [2]): 340 |
| 7130 | O=C(Nc1ccccc1C(=O)N[C@@H](Cc1ccccc1)C(=O)O)c1cc2ccccc2[nH]1 [Compound 3, 2(S)-{2-[(1H-indol-2-carbonyl)amino]-benzoylamino}-3-phenyl-propionic acid] | – |
| 170 | CCCCC(NC(=O)c1ccccc1NC(=O)c1cc2ccccc2n1C)C(=O)O (stereo not shown) [Compound 37] | – |
| 200 | CC(C)C(NC(=O)c1ccccc1NC(=O)c1cc2ccccc2[nH]1)C(=O)O (stereo not shown) [Compound 41] | IC50 (CCK-2 receptor [1]): 27400 nM; index derived from the ratio of the affinity obtained for the two types of receptor CCK-2 and CCK-1 (CCK-2 receptor [2]): 137 |
| 20 | CCCCCCC(NC(=O)c1ccccc1NC(=O)c1cc2ccccc2[nH]1)C(=O)O (stereo not shown) [Compound 39] | IC50 (CCK-2 receptor [1]): > 30000 nM; index derived from the ratio of the affinity obtained for the two types of receptor CCK-2 and CCK-1 (CCK-2 receptor [2]): >1500 |
| 370 | Cc1ccc(CC(NC(=O)c2ccccc2NC(=O)c2cc3ccccc3[nH]2)C(=O)O)cc1 (stereo not shown) [Compound 12] | – |
| 260 | O=C(Nc1ccccc1C(=O)NC(C(=O)O)c1ccccc1)c1cc2ccccc2[nH]1 (stereo not shown) [Compound 33] | – |
| 3080 | CCC(NC(=O)c1ccccc1NC(=O)c1cc2ccccc2n1C)C(=O)O (stereo not shown) [Compound 35] | – |
| 30 | O=C(Nc1ccccc1C(=O)NC(CSC12CC3CC(CC(C3)C1)C2)C(=O)O)c1cc2ccccc2[nH]1 (stereo not shown) [Compound 53] | – |
| 240 | CCCCCCCC(NC(=O)c1ccccc1NC(=O)c1cc2ccccc2[nH]1)C(=O)O (stereo not shown) [Compound 40] | – |
| 170 | O=C(Nc1ccccc1C(=O)NC(CCCC1CCCCC1)C(=O)O)c1cc2ccccc2[nH]1 (stereo not shown) [Compound 50] | – |
| 520 | O=C(Nc1ccccc1C(=O)NC(Cc1ccccc1)C(=O)O)c1cc2ccccc2o1 (stereo not shown) [Compound 9] | – |
| 9 | COc1ccccc1CCC(NC(=O)c1ccccc1NC(=O)c1cc2cc(F)ccc2[nH]1)C(=O)O (stereo not shown) [Compound 32] | affinity for the CCK-1 receptors of the pancreatic acini of rat, in words (CCK-1 receptors; summary of Table 2): nanomolar level; IC50 (CCK-2 receptor [1]): 5680 nM; index derived from the ratio of the affinity obtained for the two types of receptor CCK-2 and CCK-1 (CCK-2 receptor [2]): 631.1 |
| 780 | O=C(Nc1ccccc1C(=O)NC(Cc1ccccc1)C(=O)O)c1cc2ccccc2s1 (stereo not shown) [Compound 10] | – |
| 90 | O=C(Nc1ccccc1C(=O)NC(Cc1ccccc1)C(=O)O)c1cc2cccc(F)c2[nH]1 (stereo not shown) [Compound 8] | – |
| 40 | CSCCC(NC(=O)c1ccccc1NC(=O)c1cc2ccccc2[nH]1)C(=O)O (stereo not shown) [Compound 51] | – |

| IC50 (CCK-1 receptors) [nM] | SMILES | further results |
| --- | --- | --- |
| 210 | CCCC(NC(=O)c1ccccc1NC(=O)c1cc2ccccc2n1C)C(=O)O (stereo not shown) [Compound 36] | – |
| 90 | O=C(Nc1ccccc1C(=O)NC(CCCc1ccccc1)C(=O)O)c1cc2ccccc2[nH]1 (stereo not shown) [Compound 24] | – |
| 60 | O=C(Nc1ccccc1C(=O)NC(Cc1ccccc1)C(=O)O)c1cc2cc(F)ccc2[nH]1 (stereo not shown) [Compound 6] | IC50 (CCK-2 receptor [1]): 10600 nM; index derived from the ratio of the affinity obtained for the two types of receptor CCK-2 and CCK-1 (CCK-2 receptor [2]): 176.6 |
| 140 | CC(C)CCCCC(NC(=O)c1ccccc1NC(=O)c1cc2ccccc2[nH]1)C(=O)O (stereo not shown) [Compound 45] | – |
| 280 | O=C(Nc1ccccc1C(=O)NC(Cc1cccc(Cl)c1)C(=O)O)c1cc2ccccc2[nH]1 (stereo not shown) [Compound 14] | – |
| 30 | Cc1ccccc1CCC(NC(=O)c1ccccc1NC(=O)c1cc2ccccc2n1C)C(=O)O (stereo not shown) [Compound 27] | – |
| 160 | O=C(Nc1ccccc1C(=O)NC(Cc1ccccc1)C(=O)O)c1cc2ccc(F)cc2[nH]1 (stereo not shown) [Compound 7] | – |
| 10 | CCCCCC(NC(=O)c1ccccc1NC(=O)c1cc2ccccc2[nH]1)C(=O)O (stereo not shown) [Compound 38] | IC50 (CCK-2 receptor [1]): > 30000 nM; index derived from the ratio of the affinity obtained for the two types of receptor CCK-2 and CCK-1 (CCK-2 receptor [2]): >3000 |
| 430 | O=C(Nc1ccccc1C(=O)NC(Cc1ccc([N+](=O)[O-])cc1)C(=O)O)c1cc2ccccc2[nH]1 (stereo not shown) [Compound 18] | – |
| 60 | CC(C)CC(NC(=O)c1ccccc1NC(=O)c1cc2ccccc2[nH]1)C(=O)O (stereo not shown) [Compound 42] | – |
| 160 | O=C(Nc1ccccc1C(=O)NC(Cc1ccccc1[N+](=O)[O-])C(=O)O)c1cc2ccccc2[nH]1 (stereo not shown) [Compound 17] | – |
| 30 | CCC(CC)CC(NC(=O)c1ccccc1NC(=O)c1cc2ccccc2[nH]1)C(=O)O (stereo not shown) [Compound 46] | IC50 (CCK-2 receptor [1]): 2670 nM; index derived from the ratio of the affinity obtained for the two types of receptor CCK-2 and CCK-1 (CCK-2 receptor [2]): 89 |
| 40 | CC(C)CCCC(NC(=O)c1ccccc1NC(=O)c1cc2ccccc2[nH]1)C(=O)O (stereo not shown) [Compound 44] | – |
| 270 | O=C(Nc1ccccc1C(=O)NC(Cc1ccccc1Cl)C(=O)O)c1cc2ccccc2[nH]1 (stereo not shown) [Compound 13] | – |
| 120 | O=C(Nc1ccccc1C(=O)NC(CCc1ccccc1[N+](=O)[O-])C(=O)O)c1cc2ccccc2[nH]1 (stereo not shown) [Compound 28] | – |
| 180 | O=C(Nc1ccccc1C(=O)NC(Cc1ccc(F)cc1)C(=O)O)c1cc2ccccc2[nH]1 (stereo not shown) [Compound 19] | – |
| 40 | O=C(Nc1ccccc1C(=O)NC(CCC1CCCCC1)C(=O)O)c1cc2ccccc2[nH]1 (stereo not shown) [Compound 49] | – |
| 80 | CC(C)CCC(NC(=O)c1ccccc1NC(=O)c1cc2ccccc2[nH]1)C(=O)O (stereo not shown) [Compound 43] | – |
| 240 | O=C(Nc1ccccc1C(=O)NC(Cc1ccccc1)C(=O)O)c1cc2ccccc2[nH]1 (racemic) [Compound 1, 2 (R,S)-{2-[(1H-indol-2-carbonil)amino]-benzoilamino}-3-phnyl-propionic acid] | – |
| 20 | O=C(Nc1ccccc1C(=O)NC(CC1CCCCC1)C(=O)O)c1cc2ccccc2[nH]1 (stereo not shown) [Compound 48] | IC50 (CCK-2 receptor [1]): 1220 nM; index derived from the ratio of the affinity obtained for the two types of receptor CCK-2 and CCK-1 (CCK-2 receptor [2]): 61 |
| 1950 | O=C(NC(Cc1ccccc1)C(=O)O)c1ccccc1NC(=O)c1c[nH]c2ccccc12 (stereo not shown) [Compound 55] | – |
| 170 | Cn1c(C(=O)Nc2ccccc2C(=O)NC(Cc2ccccc2)C(=O)O)cc2ccccc21 (stereo not shown) [Compound 5] | – |
| 620 | O=C(Nc1ccccc1C(=O)NC(CSc1ccccc1)C(=O)O)c1cc2ccccc2[nH]1 (stereo not shown) [Compound 52] | – |

| SMILES | IC50 (CCK-1 receptors) [nM] | further results |
| --- | --- | --- |
| O=C(Nc1ccccc1C(=O)N[C@@H](CCc1ccccc1)C(=O)O)c1cc2ccccc2[nH]1 [Compound 22] | 190 | – |
